Data reported in EP4772186A1, “USE AND COMPOSITION OF POSTBIOTIC OF LACTOBACILLUS PARACASEI ET-22” (Inner Mongolia Yili Industrial Group Co., Ltd., priority 2023, dated 2025).

Test system: VSC concentration
Experiment: in vitro Halimeter determination of VSC concentration in saliva fermentation
Format: cell-based, halitosis subjects (saliva)
Conditions: compared with CK group, anaerobic cultivation 10 hours
Method: Fresh saliva was collected from 10 halitosis subjects (Halimeter index >120). Subjects were required not to consume any food or drink for 2 hours before donating saliva. Saliva was directly spat into a saliva collection tube, 5 ml per person, and mixed. The mixture was centrifuged at 4500 rpm for 10 minutes, and the supernatant was collected, aliquoted, and stored at -80°C for subsequent experimental studies.
(§1) Lysate observation group: In a 10 ml sample vial, 100 µl of saliva was added first, followed by the separate addition of ET-22 viable bacteria (1.0×10^9 CFU/ml), ET-22 heat-inactivated bacterial cells (obtained by inactivating viable bacteria at 1.0×10^9 CFU/ml), and lysate (obtained by inactivating and then filtering viable bacteria at 1.0×10^9 CFU/ml), each at 100µl. Then, 1.8 ml of SHI medium was added. After filling with nitrogen, anaerobic cultivation was performed for 10 hours. Then, the obtained culture was placed in a 60°C water bath for 30-min incubation. VSC concentration was measured using the in vitro Halimeter method.
(§2) Group of two nucleotides: In a 10 ml sample vial, 100 µl of saliva was added first, followed by the separate addition of ET-22 viable bacteria (1.0×10^9 CFU/ml), ET-22 heat-inactivated bacterial cells (obtained by inactivating viable bacteria at 1.0×10^9 CFU/ml), NAD, and FAD (500 µg/ml, 100 µg/ml, 10 µg/ml), each at 100µl. Then, 1.8 ml of SHI medium was added. After filling with nitrogen, anaerobic cultivation was performed for 10 hours. Then, the obtained culture was placed in a 60°C water bath for 30-min incubation. VSC concentration was measured using the in vitro Halimeter method.
as §2, with “five organic acids:” for “two nucleotides:”, “heat-inactivating” for “inactivating”, “CFU/ml),” for “CFU/ml), NAD,”, “five organic acid components” for “FAD”
as §2, with “Observation group” for “Group”, “four polypeptides:” for “two nucleotides:”, “heat-inactivating” for “inactivating”, “CFU/ml),” for “CFU/ml), NAD,”, “components of four polypeptides” for “FAD”
as §1, with “Peptidoglycan” for “Lysate observation”, “peptidoglycan (peptidoglycan extracted from” for “lysate (obtained by inactivating and then filtering”, “CFU/ml).” for “CFU/ml), each at 100µl.”, “method. […]” for “method.”

Measured: VSC concentration

Cc1cc2nc3c(=O)[nH]c(=O)nc-3n(C[C@H](O)[C@H](O)[C@H](O)COP(=O)(O)OP(=O)(O)OC[C@H]3O[C@@H](n4cnc5c(N)ncnc54)[C@H](O)[C@@H]3O)c2cc1C [FAD, Flavin adenine dinucleotide (FAD)]
no significant change: high concentration (500 µg/ml) | low concentration (10 µg/ml) | medium concentration (100 µg/ml)
